Source: ChEMBL document CHEMBL1201862, “PubChem BioAssay data set” (2004)
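The compound was tested at five concentrations on cells cultured in 96-well plates, with a 48-hour exposure period. The concentration for 50% growth inhibition is given as GI50.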 Calls of active or inactive are those of the source. Rule as the data show it: active = GI50 up to about 1.1 µM and inactive = higher.

What was measured:
Assay in all cases: growth of human tumour cells (NCI), 48 h
[1] = tested on: MDA-MB-231
[2] = tested on: SK-OV-3
[3] = tested on: OVCAR-8
[4] = tested on: NCI-H460
[5] = tested on: PC-3
[6] = tested on: OVCAR-4
[7] = tested on: A498
[8] = tested on: SK-MEL-5
[9] = tested on: UACC-62
[10] = tested on: A549
[11] = tested on: Malme-3M
[12] = tested on: MDA-MB-435
[13] = tested on: RPMI-8226
[14] = tested on: COLO 205
[15] = tested on: SF-268
[16] = tested on: UACC-257
[17] = tested on: SF-539
[18] = tested on: SK-MEL-28
[19] = tested on: ACHN
[20] = tested on: OVCAR-5
[21] = tested on: HOP-62
[22] = tested on: NCI-H522
[23] = tested on: MCF7
[24] = tested on: DU-145
[25] = tested on: HCT-15
[26] = tested on: LOX IMVI
[27] = tested on: KM12
[28] = tested on: 786-0
[29] = tested on: CCRF-CEM
[30] = tested on: RXF 393
[31] = tested on: NCI/ADR-RES
[32] = tested on: SNB-19
[33] = tested on: HT-29
[34] = tested on: MDA-N
[35] = tested on: CAKI-1
[36] = tested on: SNB-75
[37] = tested on: HOP-92
[38] = tested on: SR
[39] = tested on: M14
[40] = tested on: UO-31
[41] = tested on: Hs-578T
[42] = tested on: EKVX
[43] = tested on: BT-549
[44] = tested on: TK-10
[45] = tested on: HCT-116
[46] = tested on: OVCAR-3
[47] = tested on: NCI-H23
[48] = tested on: IGROV-1
[49] = tested on: T47D
[50] = tested on: SW-620
[51] = tested on: MOLT-4
[52] = tested on: K562
[53] = tested on: SN12C
[54] = tested on: HCC 2998
[55] = tested on: SF-295
[56] = tested on: SK-MEL-2
[57] = tested on: U-251
[58] = tested on: HL-60

Measured: GI50

CC(C)(C)c1c2c(c(C(C)(C)C)c3c1OCN(Cc1ccccc1)C3)OCN(Cc1ccccc1)C2
16.5 µM: [25]
inactive: [1] 15.5 µM | [2] 22.6 µM | [3] 26.2 µM | [4] 15.1 µM | [5] 16.6 µM | [6] 44.7 µM | [7] 6 µM | [8] 8.87 µM | [9] 17.7 µM | [10] 17.6 µM | [11] 18.7 µM | [12] 28.5 µM | [13] 8.69 µM | [14] 13.7 µM | [15] 16.2 µM | [16] 12.8 µM | [17] 16 µM | [18] 29.6 µM | [19] 17.8 µM | [20] 13.4 µM | [21] 18.9 µM | [22] 10.9 µM | [23] 11 µM | [24] 22.6 µM | [26] 16.3 µM | [27] 21.3 µM | [28] 12.9 µM | [29] 28 µM | [30] 14.7 µM | [31] 19.6 µM | [32] 11 µM | [33] 16.7 µM | [34] 11.7 µM | [35] 33.2 µM | [36] 37.2 µM | [37] 12 µM | [38] 18.9 µM | [39] 14.2 µM | [40] 17.2 µM | [41] 20.4 µM | [42] 12.7 µM | [43] 16.9 µM | [44] 15 µM | [45] 11.3 µM | [46] 14 µM | [47] 12.9 µM | [48] 21 µM | [49] 31.7 µM | [50] 24.5 µM | [51] 18.2 µM | [52] 17.6 µM | [53] 15.4 µM | [54] 10.5 µM | [55] 15.2 µM | [56] 16.6 µM | [57] 14.8 µM

CN(C)CC[N+](C)(C)[BH2-]C(O)O
> 100 µM: [25]
inactive: [1] > 100 µM | [4] > 100 µM | [5] > 100 µM | [6] > 100 µM | [7] > 100 µM | [8] > 100 µM | [9] > 100 µM | [10] > 100 µM | [12] > 100 µM | [14] > 100 µM | [15] > 100 µM | [16] > 100 µM | [17] > 100 µM | [18] > 100 µM | [19] > 100 µM | [20] > 100 µM | [21] > 100 µM | [58] > 100 µM | [22] > 100 µM | [23] > 100 µM | [24] > 100 µM | [26] > 100 µM | [27] > 100 µM | [28] > 100 µM | [29] > 100 µM | [30] > 100 µM | [31] > 100 µM | [32] > 100 µM | [33] > 100 µM | [34] > 100 µM | [35] > 100 µM | [36] > 100 µM | [37] > 100 µM | [38] > 100 µM | [39] > 100 µM | [40] > 100 µM | [41] > 100 µM | [42] > 100 µM | [43] > 100 µM | [44] > 100 µM | [45] > 100 µM | [46] > 100 µM | [47] > 100 µM | [48] > 100 µM | [49] > 100 µM | [50] > 100 µM | [51] > 100 µM | [52] > 100 µM | [53] > 100 µM | [54] > 100 µM | [55] > 100 µM | [56] > 100 µM | [57] > 100 µM
